In patent US20050113396A1, “2-Guanidino-4-heterocyclylquinazolines” (priority 2001, published 2005):
Counter-ions that a name gives are not always drawn.

melting point [°C] | Structure (SMILES)
302 | NC(N)=Nc1nc(-n2c(Br)ccc2Br)c2cc(Cl)ccc2n1 (as salt: HCl) [Example 196]
317 to 320 | Cc1noc(C)c1-c1nc(N=C(N)N)nc2ccc(Cl)cc12 (as salt: HCl) [Example 215]
270 to 275 | COc1ncc(-c2nc(N=C(N)N)nc3ccc(Cl)cc23)c(OC)n1 (as salt: HCl) [Example 235]
